From ChEMBL document CHEMBL3886330, “Substituted azoanthracene derivatives and intermediates for preparation thereof” (2015)

Target: Glucagon-like peptide 1 receptor (Homo sapiens, UniProt P43220)
Assay type: functional

Glucagon-like peptide 1 receptor, sequence (P43220 whole entry): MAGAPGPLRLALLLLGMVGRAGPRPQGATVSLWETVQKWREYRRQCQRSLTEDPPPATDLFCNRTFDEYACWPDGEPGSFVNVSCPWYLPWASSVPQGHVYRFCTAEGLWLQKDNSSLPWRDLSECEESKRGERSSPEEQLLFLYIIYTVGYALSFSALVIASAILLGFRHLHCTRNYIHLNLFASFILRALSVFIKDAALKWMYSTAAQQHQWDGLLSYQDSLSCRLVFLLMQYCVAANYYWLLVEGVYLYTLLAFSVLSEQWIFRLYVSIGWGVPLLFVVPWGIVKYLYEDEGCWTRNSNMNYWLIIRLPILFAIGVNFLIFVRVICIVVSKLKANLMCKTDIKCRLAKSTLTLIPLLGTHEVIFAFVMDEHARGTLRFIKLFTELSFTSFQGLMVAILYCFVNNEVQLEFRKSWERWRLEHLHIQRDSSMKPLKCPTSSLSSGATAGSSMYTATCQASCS

EC50	SMILES
115 nM	Cc1nccc(Oc2ccc(C[C@H](NC(=O)[C@@H]3Cc4cc5c(cc4CN3C(=O)N[C@H](C)c3ccccc3)O[C@@H](c3ccc(OCc4ccc(Cl)c(Cl)c4)cc3)CO5)C(=O)O)cc2)c1C
96 nM	Cc1nccc(-c2ccc(C[C@H](NC(=O)[C@@H]3Cc4cc5c(cc4CN3C(=O)Nc3ccc(Cl)cc3)O[C@@H](c3ccc(OCc4ccc(Cl)c(Cl)c4)cc3)CO5)C(=O)O)cc2)c1C
222 nM	CC[C@@H](c1ccccc1)N1Cc2cc3c(cc2C[C@H]1C(=O)N[C@@H](Cc1ccc(-c2ccnc(F)c2)cc1)C(=O)O)OC[C@H](c1ccc(OCc2ccc(Cl)c(Cl)c2)cc1)O3
87 nM	Cc1nccc(-c2ccc(C[C@H](NC(=O)[C@@H]3Cc4cc5c(cc4CN3C(=O)OCC(C)(C)C)O[C@@H](c3ccc(OCc4ccc(Cl)c(Cl)c4)cc3)CO5)C(=O)O)cc2)c1C
23 nM	Cc1nccc(-c2ccc(C[C@H](NC(=O)[C@@H]3Cc4cc5c(cc4CN3C(=O)OCc3ccccc3)O[C@@H](c3ccc(OCc4ccc(Cl)c(Cl)c4)cc3)CO5)C(=O)O)cc2)c1C
172 nM	Cc1nccc(-c2ccc(C[C@H](NC(=O)[C@@H]3Cc4cc5c(cc4CN3C(=O)c3oc4ccccc4c3C)O[C@@H](c3ccc(OCc4ccc(Cl)c(Cl)c4)cc3)CO5)C(=O)O)cc2)c1C
73 nM	Cc1nccc(-c2ccc(C[C@H](NC(=O)[C@@H]3Cc4cc5c(cc4CN3C(=O)N(C(C)C)C(C)C)O[C@@H](c3ccc(OCc4ccc(Cl)c(Cl)c4)cc3)CO5)C(=O)O)cc2)c1C
22 nM	Cc1nccc(-c2ccc(C[C@H](NC(=O)[C@@H]3Cc4cc5c(cc4CN3C(=O)c3cccc(Cl)c3)O[C@@H](c3ccc(OCc4ccc(Cl)c(Cl)c4)cc3)CO5)C(=O)O)cc2)c1C
126 nM	CC[C@@H](NC(=O)N1Cc2cc3c(cc2C[C@H]1C(=O)N[C@@H](Cc1ccc(-c2ccnc(C)c2C)cc1)C(=O)O)OC[C@H](c1ccc(OCc2ccc(Cl)c(Cl)c2)cc1)O3)c1ccccc1
166 nM	Cc1nccc(-c2ccc(C[C@H](NC(=O)[C@@H]3Cc4cc5c(cc4CN3C(=O)c3cnccn3)O[C@@H](c3ccc(OCc4ccc(Cl)c(Cl)c4)cc3)CO5)C(=O)O)cc2)c1C
133 nM	Cc1nccc(-c2ccc(C[C@H](NC(=O)[C@@H]3Cc4cc5c(cc4CN3C(=O)N[C@H](C)c3ccccc3)O[C@@H](c3ccc(OCc4ccc(Cl)cc4Cl)cc3)CO5)C(=O)O)cc2)c1C
267 nM	Cc1nccc(-c2ccc(C[C@H](NC(=O)[C@@H]3Cc4cc5c(cc4CN3S(C)(=O)=O)O[C@@H](c3ccc(OCc4ccc(Cl)c(Cl)c4)cc3)CO5)C(=O)O)cc2)c1C
288 nM	C[C@@H](NC(=O)N1Cc2cc3c(cc2C[C@H]1C(=O)N[C@@H](Cc1ccc(-c2ccc(C#N)cc2)cc1)C(=O)O)OC[C@H](c1ccc(OCc2ccc(Cl)c(Cl)c2)cc1)O3)c1ccccc1
42 nM	Cc1nc(C(=O)N2Cc3cc4c(cc3C[C@H]2C(=O)N[C@@H](Cc2ccc(-c3ccnc(C)c3C)cc2)C(=O)O)OC[C@H](c2ccc(OCc3ccc(Cl)c(Cl)c3)cc2)O4)c(C(F)(F)F)o1
64 nM	CCCCOC(=O)N1Cc2cc3c(cc2C[C@H]1C(=O)N[C@@H](Cc1ccc(-c2ccnc(C)c2C)cc1)C(=O)O)OC[C@H](c1ccc(OCc2ccc(Cl)c(Cl)c2)cc1)O3
20 nM	CC[C@@H](c1ccccc1)N1Cc2cc3c(cc2C[C@H]1C(=O)N[C@@H](Cc1ccc(-c2ccnc(C)c2)cc1)C(=O)O)OC[C@H](c1ccc(OCc2ccc(Cl)c(Cl)c2)cc1)O3

The remaining lines, values behind:

SMILES	EC50
Cc1nc(C(=O)N2Cc3cc4c(cc3C[C@H]2C(=O)N[C@@H](Cc2ccc(Oc3ccnc(C)c3C)cc2)C(=O)O)OC[C@H](c2ccc(OCc3ccc(Cl)c(Cl)c3)cc2)O4)co1	177 nM
CC(=O)Nc1nc(C)c(S(=O)(=O)N2Cc3cc4c(cc3C[C@H]2C(=O)N[C@@H](Cc2ccc(-c3ccnc(C)c3C)cc2)C(=O)O)OC[C@H](c2ccc(OCc3ccc(Cl)c(Cl)c3)cc2)O4)s1	24 nM
Cc1nc(NC2CCCC2)sc1S(=O)(=O)N1Cc2cc3c(cc2C[C@H]1C(=O)N[C@@H](Cc1ccc(-c2ccc(C#N)cc2)cc1)C(=O)O)OCC(c1ccc(OCc2ccc(Cl)c(Cl)c2)cc1)O3 (stereo partly specified)	70 nM
Cc1nc(C(=O)N2Cc3cc4c(cc3C[C@H]2C(=O)N[C@@H](Cc2ccc(-c3ccc(C#N)cc3)cc2)C(=O)O)OC[C@H](c2ccc(OCc3ccc(Cl)c(Cl)c3)cc2)O4)c(C)o1	156 nM
CCc1cc(-c2ccc(C[C@H](NC(=O)[C@@H]3Cc4cc5c(cc4CN3[C@@H](CC)c3ccccc3)O[C@@H](c3ccc(OCc4ccc(Cl)c(Cl)c4)cc3)CO5)C(=O)O)cc2)ccn1	13 nM
CCNc1nc(C)c(S(=O)(=O)N2Cc3cc4c(cc3C[C@H]2C(=O)N[C@@H](Cc2ccc(-c3ccc(F)cc3)cc2)C(=O)O)OCC(c2ccc(OCc3ccc(Cl)c(Cl)c3)cc2)O4)s1 (stereo partly specified)	131 nM
N#Cc1ccc(-c2ccc(C[C@H](NC(=O)[C@@H]3Cc4cc5c(cc4CN3C(=O)c3ccccc3)OC(c3ccc(OCc4ccc(Cl)c(Cl)c4)cc3)CN5)C(=O)O)cc2)cc1 (stereo partly specified)	410 nM
CCCNc1nc(C)c(S(=O)(=O)N2Cc3cc4c(cc3C[C@H]2C(=O)N[C@@H](Cc2ccc(-c3ccc(C#N)cc3)cc2)C(=O)O)OCC(c2ccc(OCc3ccc(Cl)c(Cl)c3)cc2)O4)s1 (stereo partly specified)	67 nM
CCCc1cc(-c2ccc(C[C@H](NC(=O)[C@@H]3Cc4cc5c(cc4CN3[C@@H](CC)c3ccccc3)O[C@@H](c3ccc(OCc4ccc(Cl)c(Cl)c4)cc3)CO5)C(=O)O)cc2)ccn1	83 nM
Cc1nccc(Oc2ccc(C[C@H](NC(=O)[C@@H]3Cc4cc5c(cc4CN3C(=O)OCC(C)C)O[C@@H](c3ccc(OCc4ccc(Cl)c(Cl)c4)cc3)CO5)C(=O)O)cc2)c1C	311 nM
Cc1ccc(COc2ccc(C3COc4cc5c(cc4O3)CN(S(=O)(=O)c3sc(N)nc3C)[C@H](C(=O)N[C@@H](Cc3ccc(-c4ccc(C#N)cc4)cc3)C(=O)O)C5)cc2)cc1Cl (stereo partly specified)	434 nM
N#Cc1ccc(-c2ccc(C[C@H](NC(=O)[C@@H]3Cc4cc5c(cc4CN3Cc3ccccc3C#N)OC(c3ccc(OCc4ccc(Cl)c(Cl)c4)cc3)CO5)C(=O)O)cc2)cc1 (stereo partly specified)	657 nM
CCNc1nc(C)c(S(=O)(=O)N2Cc3cc4c(cc3C[C@H]2C(=O)N[C@@H](Cc2ccc(-c3ccc(Cl)cc3)cc2)C(=O)O)OCC(c2ccc(OCc3ccc(Cl)c(Cl)c3)cc2)O4)s1 (stereo partly specified)	264 nM
Cc1nc(NCC2CC2)sc1S(=O)(=O)N1Cc2cc3c(cc2C[C@H]1C(=O)N[C@@H](Cc1ccc(-c2ccc(C#N)cc2)cc1)C(=O)O)OCC(c1ccc(OCc2ccc(Cl)c(Cl)c2)cc1)O3 (stereo partly specified)	75 nM
CC[C@@H](c1ccccc1)N1Cc2cc3c(cc2C[C@H]1C(=O)N[C@@H](Cc1ccc(-c2ccc(C#N)nc2)cc1)C(=O)O)OC[C@H](c1ccc(OCc2ccc(Cl)c(Cl)c2)cc1)O3	154 nM
